Reference: article PMC10179475, “Flavone and Hydroxyflavones Are Ligands That Bind the Orphan Nuclear Receptor 4A1 (NR4A1)” (International Journal of Molecular Sciences, 2023)
Entries after “also recorded” stand apart in the source; their conditions may differ. Where two headings read alike, the source gives them in different places.

Key:
[1] = biological target: ligand-binding domain (LBD) of NR4A1 (Homo sapiens, UniProt P22736); experiment: Direct-binding fluorescence assay (quenching of NR4A1 tryptophan fluorescence)
Protocol: (§1) Tryptophan fluorescence spectra were obtained essentially as described. Briefly, the ligand-binding domain of NR4A1 at the final concentration of 0.5 µmol/L in 1.0 mL of phosphate-buffered saline (PBS, pH 7.4) was used for fluorescence measurements. The protein was incubated for 3 min at 25 °C in a temperature-controlled (Quantum Northwest TC125) fluorescence spectrophotometer (Varian Cary Eclipse). The fluorescence spectra were obtained using an excitation wavelength of 285 nm (excitation slit width = 5 nm) and an emission wavelength range of 300–420 nm (emission slit width = 5 nm). Aliquots (0.1 µL/aliquot) of the ligand (10 mmol ligand/L ethanol) were then added to the cuvette containing NR4A1 to reach a final ligand concentration of up to 60 µmol/L. After each aliquot of the ligand, the NR4A1/ligand solution was incubated at 25 °C for 3 min and the loss of tryptophan fluorescence was measured as described above. The addition of DMSO only (up to a final volume of 3.0 µL) had no effect on NR4A1 tryptophan fluorescence. […] Fluorescence intensity at each ligand concentration was used to correct the NR4A1 tryptophan fluorescence intensity as described.

[2] = biological target: NR4A1 protein (ligand-binding domain: LBD) (Homo sapiens, UniProt P22736); experiment: Isothermal titration calorimetry (ITC) binding assay;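 note: ligand titrated into 20 µmol/L NR4A1 LBD in sodium phosphate buffer pH 7.4 with glycerol and ethanol, thirty injections, heat flow corrected for ligand-into-buffer dilution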
[3] = test system: ERα; parameters: method as in PMID 18095219; settings: cited from earlier work
[4] = test system: rhabdomyosarcoma tumor; parameters: method as in PMID 34906197; settings: athymic mouse xenograft model; cited from earlier work
[5] = biological target: T1, GAL4-NR4A1 (Homo sapiens, UniProt P22736); experiment: NR4A1-dependent transactivation, GAL4-NR4A1/UAS-luc, Rh30 cells; assay type: cell-based; parameters: expressed in transfected cells; host or cells: Rh30 rhabdomyosarcoma cells; settings: for effect on NR4A1-dependent transactivation: 50 µM
[6] = biological target: T1, GAL4-NR4A1; parameters: expressed in transfected cells; host or cells: Rh30 rhabdomyosarcoma cells; method as in PMID 34906197; settings: Rh30 rhabdomyosarcoma cells, same constructs, cited from earlier work
[7] = biological target: T1, GAL4-NR4A1; experiment: NR4A1-dependent transactivation, GAL4-NR4A1/UAS-luc, Panc1 cells; assay type: cell-based; parameters: expressed in transfected cells; host or cells: Panc1 pancreatic cancer cells; Rh30 rhabdomyosarcoma cells; settings: for effect on luciferase activity: 25 or 50 µM, p < 0.05
Protocol: Figure 3 Hydroxyflavonoid activation of NR4A1-dependent transactivation. Panc1 cells were cotransfected with GAL4-NR4A1 and UAS-luciferase constructs, cells were treated with 25 and 50 µM hydroxyflavonoids and luciferase activity (normalized to β-galactosidase activity) was determined. Results were determined in triplicate for each concentration and are plotted as mean values ±SE. Significant induction or inhibition (p < 0.05) of luciferase activity is illustrated (*).
The UAS-luciferase reporter gene containing 5 GAL4 binding sites and the GAL4-NR4A1 chimera containing the GAL4 DNA-binding domain which linked to the ligand-binding domain (LBD) of NR4A1 were used in transactivation assays in Panc1 pancreatic cancer cells. Panc-1 cells were plated in a 24-well plate (3 × 10^4 cells/well) and grown for 24 h. Cells were then co-transfected with each construct (250 ng) and the β-gal expression construct (25 ng) using GeneJuice (Novagen, Madison, WI, USA) in accordance with the manufacture’s protocol. The medium was removed after 18 h and replaced with a 2.5% charcoal-stripped FBS-supplemented medium containing either DMSO or flavonoids (25 and 50 µM) in DMSO. After 24 h, cells were then lysed, and cell extracts were processed to measure luciferase activity. Luciferase activity was normalized by dividing the β-gal expression and each treatment was determined in three independent experiments. Data were expressed as mean ± SE and significant (p < 0.05) effects were noted.

[8] = Solubility in the fluorescence assay; assay type: physicochemical; settings: aqueous
Protocol: as §1

[9] = fluorescence (Trp quenching) assay, Table 1 head prints no unit, µM from text and Figure 5, read-out: KD, direct binding assay
[10] = fluorescent binding assay, read-out: KD (Figure 1)

Sequence of NR4A1 protein (ligand-binding domain: LBD) (P22736 360-595 limits assumed): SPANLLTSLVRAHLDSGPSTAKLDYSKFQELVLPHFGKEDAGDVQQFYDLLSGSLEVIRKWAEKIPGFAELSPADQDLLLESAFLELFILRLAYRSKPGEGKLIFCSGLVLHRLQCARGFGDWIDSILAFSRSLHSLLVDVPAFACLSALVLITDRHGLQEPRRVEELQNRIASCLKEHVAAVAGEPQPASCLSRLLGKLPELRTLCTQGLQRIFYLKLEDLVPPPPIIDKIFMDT
Sequence of ligand-binding domain (LBD) of NR4A1 (P22736 360-595 limits assumed): as above
T1 sequence (P22736 360-595 limits assumed): as above

SMILES | Kd [1, 9] | ITC assay ΔG ([2]; 25 °C) | Kd ([2]; 25 °C, read-out: ITC assay Kd1) | effect on NR4A1-dependent transactivation [5] | effect on luciferase activity [7] | also measured
O=c1c(O)c(-c2ccc(O)c(O)c2)oc2cc(O)cc(O)c12 | 0.81 µM | -8.8 kcal/mol | 350 nM | decreased transactivation | significantly induced luciferase activity | ER binding [3]: did not bind ERα; tumor growth [4]: inhibited tumor growth; effect on luciferase activity / NR4A1-dependent transactivation (previous studies) ([6]; listed as quercetin): decreased luciferase activity; also recorded: decreased NR4A1-dependent transactivation
O=c1c(O)c(-c2ccc(O)c(O)c2)oc2cccc(O)c12 [3,5,3′,4-tetrahydroxyflavone] |  |  |  | potent inhibition |  | 
O=c1c(O)c(-c2ccccc2)oc2cc(O)cc(O)c12 [3,5,7 -Trihydroxyflavone (Galangin), 3,5,7-Trihydroxyflavone] | 0.36 µM | -12.2 kcal/mol | 1 nM | potent inhibition | decreased luciferase activity | 
O=c1c(O)c(-c2ccc(O)cc2)oc2cc(O)cc(O)c12 [3,5,7,4′-Tetrahydroxyflavone] | 3.1 µM | -5.47 kcal/mol | 97100 nM | decreased transactivation |  | tumor growth [4]: inhibited tumor growth; effect on luciferase activity / NR4A1-dependent transactivation (previous studies) ([6]; listed as kaempferol): decreased luciferase activity; also recorded: decreased NR4A1-dependent transactivation
O=c1c(O)c(-c2ccccc2)oc2ccc(O)cc12 [3,6-Dihydroxyflavone] | 0.66 µM | -4.57 kcal/mol | 444000 nM | potent inhibition |  | 
O=c1c(O)c(-c2ccccc2)oc2cc(O)ccc12 [3,7-Dihydroxyflavone] | 2.8 µM | -9.2 kcal/mol | 180 nM | potent inhibition |  | 
O=c1c(O)c(-c2ccccc2)oc2ccccc12 [3-Hydroxyflavone] |  | -10.4 kcal/mol | 22.5 nM |  |  | solubility [8]: insoluble; solubility ([8]; listed as 3-hydroxyflavone): aqueous insolubility
O=c1cc(-c2ccc(O)c(O)c2)oc2ccccc12 [3′,4′-Dihydroxyflavone] | 0.96 µM | -6.86 kcal/mol | 9500 nM |  |  | induction of luciferase activity [5]: < 2.4 fold; induction of luciferase activity [7]: < 2.4 fold
O=c1cc(-c2cccc(O)c2)oc2ccccc12 [3′-Hydroxyflavone] | 45.8 µM | -8.84 kcal/mol | 330 nM |  |  | Kd [1, 10]: 45.8 µM
O=c1cc(-c2ccc(O)cc2)oc2ccccc12 [4′-Hydroxyflavone] | 13 µM | -9.42 kcal/mol | 150 nM | potent inhibition | significantly induced luciferase activity | 
O=c1cc(-c2ccccc2)oc2cc(O)c(O)c(O)c12 [5,6,7 -Trihydroxyflavone (Baicalein), 5,6,7-Trihydroxyflavone] | 1.85 µM | -9.42 kcal/mol | 130 nM |  | significantly induced luciferase activity | 
O=c1cc(-c2ccccc2)oc2cc(O)cc(O)c12 [5,7 Dihydroxyflavone] | 11.3 µM | -12.3 kcal/mol | 1 nM |  |  | 
O=c1cc(-c2ccc(O)c(O)c2)oc2cc(O)cc(O)c12 [5,7,3′4′-Tetrahydroxyflavone (Luteolin), 5,7,3′4′-Tetrahydroxyflavone] | 5.1 µM | -10.5 kcal/mol | 19 nM |  | significantly induced luciferase activity | 
O=c1cc(-c2ccc(O)cc2)oc2cc(O)cc(O)c12 [5,7,4′-Trihydroxyflavone (Apigenin), 5,7,4′-Trihydroxyflavone] | 1.77 µM | -8.53 kcal/mol | 570 nM | decreased transactivation |  | Kd [1, 10]: 0.08 µM
O=c1cc(-c2ccccc2)oc2cccc(O)c12 [5-Hydroxyflavone] | 1.4 µM | -6.45 kcal/mol | 18000 nM |  |  | 
O=c1cc(-c2ccccc2)oc2ccc(O)cc12 [6-Hydroxyflavone] | 12.5 µM | -10.3 kcal/mol | 32 nM | decreased transactivation | significantly induced luciferase activity | 
O=c1cc(-c2cccc(O)c2)oc2cc(O)ccc12 [7,3′-Dihydroxyflavone] | 21.4 µM | -9.25 kcal/mol | 170 nM |  |  | 
O=c1cc(-c2ccc(O)cc2)oc2cc(O)ccc12 [7,4’-Dihydroxyflavone] | 9.1 µM | -8.63 kcal/mol | 490 nM |  |  | 
O=c1cc(-c2ccccc2)oc2c(O)c(O)ccc12 [7,8-Dihydroxyflavone] | 17.6 µM | -10.1 kcal/mol | 42 nM |  |  | 
O=c1cc(-c2ccccc2)oc2cc(O)ccc12 [7-Hydroxyflavone] | 7.4 µM | -10.1 kcal/mol |  |  | significantly induced luciferase activity | Kd [2]: 42 nM; induction of luciferase activity [5]: < 2.4 fold; induction of luciferase activity [7]: < 2.4 fold
Clc1cc(Cl)cc(C(c2c[nH]c3ccccc23)c2c[nH]c3ccccc23)c1 [DIM-3,5-CI2, 1,1-bis(3′-indolyl)-1-(3,5-dichlorophenyl)methane, reference compound] |  |  |  | decreased transactivation |  | 
O=c1cc(-c2ccccc2)oc2ccccc12 [Flavone] | 3.4 µM | -9.73 kcal/mol | 75 nM |  |  | 
